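The compound was tested at five concentrations on cells cultured in 96-well plates, with a 48-hour exposure period. GI50 = concentration required for 50% inhibition of growth.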 Calls of active or inactive are those of the source. Cut-off read from the data, not from the text of the source: active = GI50 up to about 1.1 µM and inactive = higher.
Columns and labels:
Assay in all cases: inhibition of tumour cell growth, NCI panel, 48 h
[1] = test system: 786-0
[2] = test system: A498
[3] = test system: A549
[4] = test system: ACHN
[5] = test system: BT-549
[6] = test system: CAKI-1
[7] = test system: CCRF-CEM
[8] = test system: COLO 205
[9] = test system: DU-145
[10] = test system: EKVX
[11] = test system: HCC 2998
[12] = test system: HCT-116
[13] = test system: HCT-15
[14] = test system: HL-60
[15] = test system: HOP-62
[16] = test system: HOP-92
[17] = test system: HT-29
[18] = test system: Hs-578T
[19] = test system: IGROV-1
[20] = test system: K562
[21] = test system: KM12
[22] = test system: LOX IMVI
[23] = test system: M14
[24] = test system: MCF7
[25] = test system: MDA-MB-231
[26] = test system: MDA-MB-435
[27] = test system: MDA-N
[28] = test system: MOLT-4
[29] = test system: Malme-3M
[30] = test system: NCI-H226
[31] = test system: NCI-H23
[32] = test system: NCI-H460
[33] = test system: NCI-H522
[34] = test system: NCI/ADR-RES
[35] = test system: OVCAR-3
[36] = test system: OVCAR-4
[37] = test system: OVCAR-5
[38] = test system: OVCAR-8
[39] = test system: PC-3
[40] = test system: RPMI-8226
[41] = test system: RXF 393
[42] = test system: SF-268
[43] = test system: SF-295
[44] = test system: SF-539
[45] = test system: SK-MEL-28
[46] = test system: SK-MEL-2
[47] = test system: SK-MEL-5
[48] = test system: SK-OV-3
[49] = test system: SN12C
[50] = test system: SNB-19
[51] = test system: SR
[52] = test system: SW-620
[53] = test system: T47D
[54] = test system: TK-10
[55] = test system: U-251
[56] = test system: UACC-257
[57] = test system: UACC-62
[58] = test system: UO-31
[59] = test system: SNB-75

`COc1ccc2c(c1)CC[C@@H]1C2CC[C@]2(C)OC(=O)CCC12` (stereo partly specified) was tested. Which GI50 [1] did it give?
The GI50 was 5.85 µM (inactive).

What about the GI50 [2] of the same molecule?
Its GI50 is 38.6 µM (inactive).

And the GI50 [3]?
Its GI50 is 27.9 µM (inactive).

What about the GI50 [4] of the same molecule?
The GI50 was 50.8 µM (inactive).

And the GI50 [5]?
Its GI50 is 11.4 µM (inactive).

What about the GI50 [6] of the same molecule?
Its GI50 is 31.6 µM (inactive).

What about the GI50 [7] of the same molecule?
The GI50 was 3.6 µM (inactive).

What about the GI50 [8] of the same molecule?
The GI50 was 40.3 µM (inactive).

What about the GI50 [9] of the same molecule?
Its GI50 is 43.6 µM (inactive).

And the GI50 [10]?
Its GI50 is 7.73 µM (inactive).

And the GI50 [11]?
Its GI50 is > 100 µM (inactive).

What about the GI50 [12] of the same molecule?
The GI50 was 8.89 µM (inactive).

What about the GI50 [13] of the same molecule?
The GI50 was 17.5 µM.

And the GI50 [14]?
Its GI50 is > 100 µM (inactive).

And the GI50 [15]?
The GI50 was 25 µM (inactive).

And the GI50 [16]?
The GI50 was 13 µM (inactive).

And the GI50 [17]?
The GI50 was 19.8 µM (inactive).

What about the GI50 [18] of the same molecule?
The GI50 was 14.4 µM (inactive).

And the GI50 [19]?
Its GI50 is 23.6 µM (inactive).

What about the GI50 [20] of the same molecule?
The GI50 was 3.01 µM (inactive).

What about the GI50 [21] of the same molecule?
Its GI50 is 32.2 µM (inactive).

What about the GI50 [22] of the same molecule?
The GI50 was 6.67 µM (inactive).

What about the GI50 [23] of the same molecule?
The GI50 was 13.2 µM (inactive).

And the GI50 [24]?
The GI50 was 15 µM (inactive).

What about the GI50 [25] of the same molecule?
The GI50 was 2.45 µM (inactive).

And the GI50 [26]?
The GI50 was 26.5 µM (inactive).

And the GI50 [27]?
Its GI50 is 20.3 µM (inactive).

And the GI50 [28]?
Its GI50 is > 100 µM (inactive).

And the GI50 [29]?
Its GI50 is 15.7 µM (inactive).

And the GI50 [30]?
The GI50 was 11.7 µM (inactive).

What about the GI50 [31] of the same molecule?
Its GI50 is 12.6 µM (inactive).

And the GI50 [32]?
Its GI50 is 22.7 µM (inactive).

And the GI50 [33]?
Its GI50 is 6.07 µM (inactive).

What about the GI50 [34] of the same molecule?
The GI50 was 14.9 µM (inactive).

And the GI50 [35]?
Its GI50 is 11.6 µM (inactive).

What about the GI50 [36] of the same molecule?
The GI50 was 6.12 µM (inactive).

What about the GI50 [37] of the same molecule?
Its GI50 is 13.3 µM (inactive).

And the GI50 [38]?
Its GI50 is 14 µM (inactive).

What about the GI50 [39] of the same molecule?
The GI50 was 12.6 µM (inactive).

What about the GI50 [40] of the same molecule?
The GI50 was 5.77 µM (inactive).

What about the GI50 [41] of the same molecule?
The GI50 was 12.7 µM (inactive).

What about the GI50 [42] of the same molecule?
The GI50 was 12.1 µM (inactive).

What about the GI50 [43] of the same molecule?
The GI50 was 18.3 µM (inactive).

And the GI50 [44]?
The GI50 was 15.2 µM (inactive).

What about the GI50 [45] of the same molecule?
The GI50 was 16.8 µM (inactive).

What about the GI50 [46] of the same molecule?
The GI50 was 23.1 µM (inactive).

And the GI50 [47]?
Its GI50 is 12.6 µM (inactive).

What about the GI50 [48] of the same molecule?
Its GI50 is > 100 µM (inactive).

And the GI50 [49]?
Its GI50 is 14.8 µM (inactive).

What about the GI50 [50] of the same molecule?
The GI50 was 17.4 µM (inactive).

What about the GI50 [51] of the same molecule?
Its GI50 is 5.12 µM (inactive).

And the GI50 [52]?
The GI50 was 10.7 µM (inactive).

What about the GI50 [53] of the same molecule?
The GI50 was 34.6 µM (inactive).

What about the GI50 [54] of the same molecule?
Its GI50 is 34.2 µM (inactive).

And the GI50 [55]?
The GI50 was 6.87 µM (inactive).

What about the GI50 [56] of the same molecule?
The GI50 was 12.8 µM (inactive).

And the GI50 [57]?
Its GI50 is 20.2 µM (inactive).

And the GI50 [58]?
The GI50 was 17.9 µM (inactive).

For `N#CN1C2CCC1CC(=O)C2`, which GI50 [1] is on record?
The GI50 was > 100 µM (inactive).

And the GI50 [2]?
The GI50 was > 100 µM (inactive).

What about the GI50 [3] of the same molecule?
The GI50 was > 100 µM (inactive).

And the GI50 [4]?
The GI50 was > 100 µM (inactive).

And the GI50 [5]?
Its GI50 is > 100 µM (inactive).

What about the GI50 [6] of the same molecule?
The GI50 was > 100 µM (inactive).

What about the GI50 [7] of the same molecule?
The GI50 was > 100 µM (inactive).

And the GI50 [8]?
Its GI50 is > 100 µM (inactive).

And the GI50 [9]?
Its GI50 is > 100 µM (inactive).

And the GI50 [10]?
Its GI50 is > 100 µM (inactive).

What about the GI50 [11] of the same molecule?
The GI50 was > 100 µM (inactive).

And the GI50 [12]?
Its GI50 is > 100 µM (inactive).

What about the GI50 [13] of the same molecule?
The GI50 was > 100 µM.

What about the GI50 [14] of the same molecule?
Its GI50 is > 100 µM (inactive).

What about the GI50 [15] of the same molecule?
Its GI50 is > 100 µM (inactive).

And the GI50 [16]?
The GI50 was > 100 µM (inactive).

What about the GI50 [17] of the same molecule?
Its GI50 is > 100 µM (inactive).

What about the GI50 [18] of the same molecule?
Its GI50 is > 100 µM (inactive).

What about the GI50 [19] of the same molecule?
Its GI50 is > 100 µM (inactive).

And the GI50 [20]?
The GI50 was > 100 µM (inactive).

What about the GI50 [21] of the same molecule?
Its GI50 is > 100 µM (inactive).

And the GI50 [22]?
Its GI50 is > 100 µM (inactive).

What about the GI50 [23] of the same molecule?
Its GI50 is > 100 µM (inactive).

And the GI50 [24]?
Its GI50 is > 100 µM (inactive).

What about the GI50 [25] of the same molecule?
The GI50 was > 100 µM (inactive).

What about the GI50 [26] of the same molecule?
The GI50 was > 100 µM (inactive).

And the GI50 [27]?
The GI50 was > 100 µM (inactive).

And the GI50 [28]?
The GI50 was > 100 µM (inactive).

What about the GI50 [29] of the same molecule?
Its GI50 is > 100 µM (inactive).

And the GI50 [30]?
The GI50 was > 10 µM (inactive).

And the GI50 [31]?
Its GI50 is > 100 µM (inactive).

And the GI50 [32]?
The GI50 was > 100 µM (inactive).

What about the GI50 [33] of the same molecule?
The GI50 was > 100 µM (inactive).

What about the GI50 [34] of the same molecule?
Its GI50 is > 100 µM (inactive).

And the GI50 [35]?
Its GI50 is > 100 µM (inactive).

What about the GI50 [36] of the same molecule?
The GI50 was > 100 µM (inactive).

And the GI50 [37]?
The GI50 was > 100 µM (inactive).

And the GI50 [38]?
The GI50 was > 100 µM (inactive).

What about the GI50 [39] of the same molecule?
The GI50 was > 100 µM (inactive).

And the GI50 [40]?
The GI50 was > 100 µM (inactive).

What about the GI50 [42] of the same molecule?
The GI50 was > 100 µM (inactive).

And the GI50 [43]?
Its GI50 is > 100 µM (inactive).

And the GI50 [44]?
The GI50 was > 100 µM (inactive).

What about the GI50 [45] of the same molecule?
The GI50 was > 100 µM (inactive).

And the GI50 [46]?
The GI50 was > 100 µM (inactive).

And the GI50 [47]?
Its GI50 is > 100 µM (inactive).

What about the GI50 [48] of the same molecule?
The GI50 was > 100 µM (inactive).

And the GI50 [49]?
Its GI50 is > 100 µM (inactive).

What about the GI50 [50] of the same molecule?
Its GI50 is > 100 µM (inactive).

And the GI50 [59]?
Its GI50 is > 100 µM (inactive).

What about the GI50 [51] of the same molecule?
The GI50 was > 100 µM (inactive).

What about the GI50 [52] of the same molecule?
Its GI50 is > 100 µM (inactive).

What about the GI50 [53] of the same molecule?
Its GI50 is > 100 µM (inactive).

What about the GI50 [54] of the same molecule?
The GI50 was > 100 µM (inactive).

And the GI50 [55]?
The GI50 was > 100 µM (inactive).

And the GI50 [56]?
Its GI50 is > 100 µM (inactive).

And the GI50 [57]?
The GI50 was > 100 µM (inactive).

What about the GI50 [58] of the same molecule?
The GI50 was > 100 µM (inactive).
